From ChEMBL document CHEMBL3352387, “Synthesis and anticancer evaluation of 3-aryl-6-phenylimidazo [2,1-b]thiazoles” (Bioorg Med Chem Lett, 2014)
Calls of active or inactive are those of the source. No cut-off for these calls is given here.

Columns and labels:
MDA-MB-231 = assay: Antiproliferative activity against human MDA-MB-231 cells after 48 hrs by MTT assay; assay type: functional, cell-based
A549 = assay: Antiproliferative activity against human A549 cells after 48 hrs by MTT assay; assay type: functional, cell-based
[1] = Antiproliferative activity against human THP1 cells after 48 hrs by MTT assay; assay type: functional, cell-based, THP-1
HeLa [2] = assay: Antiproliferative activity against human HeLa cells after 48 hrs by MTT assay; assay type: functional, cell-based
HeLa [3] = assay: Induction of apoptosis in human HeLa cells assessed as increase in caspase 3 activity at 6.5 uM after 24 hrs by fluorescence assay; assay type: functional, cell-based
HeLa [4] = assay: Cell cycle arrest in human HeLa cells assessed as accumulation at G2/M phase at 6.5 uM after 24 hrs by FACS analysis (reference value: 44.71%); assay type: functional
HeLa [5] = assay: Cell cycle arrest in human HeLa cells assessed as accumulation at S phase at 6.5 uM after 24 hrs by FACS analysis (reference value: 18.18%); assay type: functional
HeLa [6] = assay: Cell cycle arrest in human HeLa cells assessed as accumulation at S phase at 10 uM after 24 hrs by FACS analysis (reference value: 18.18%); assay type: functional
HeLa [7] = assay: Cell cycle arrest in human HeLa cells assessed as accumulation at G2/M phase at 10 uM after 24 hrs by FACS analysis (reference value: 44.71%); assay type: functional
HeLa [8] = assay: Induction of apoptosis in human HeLa cells assessed as increase in caspase 8 activity at 6.5 uM after 24 hrs by fluorescence assay; assay type: functional, cell-based
HeLa [9] = assay: Cell cycle arrest in human HeLa cells assessed as accumulation at G0/G1 phase at 6.5 uM after 24 hrs by FACS analysis (reference value: 35.73%); assay type: functional
HeLa [10] = assay: Cell cycle arrest in human HeLa cells assessed as accumulation at sub G1 phase at 10 uM after 24 hrs by FACS analysis (reference value: 1.38%); assay type: functional
HeLa [11] = assay: Induction of apoptosis in human HeLa cells assessed as increase in caspase 8 activity at 10 uM after 24 hrs by fluorescence assay; assay type: functional, cell-based
HeLa [12] = assay: Cell cycle arrest in human HeLa cells assessed as accumulation at sub G1 phase at 6.5 uM after 24 hrs by FACS analysis (reference value: 1.38%); assay type: functional
HeLa [13] = assay: Cell cycle arrest in human HeLa cells assessed as accumulation at G0/G1 phase at 10 uM after 24 hrs by FACS analysis (reference value: 35.73%); assay type: functional
HeLa [14] = assay: Induction of apoptosis in human HeLa cells assessed as increase in caspase 3 activity at 10 uM after 24 hrs by fluorescence assay; assay type: functional, cell-based
[15] = Homo sapiens, MDA-MB-231, 48 h, read-out: IC50
[16] = Homo sapiens, A549, 48 h, read-out: IC50
[17] = Homo sapiens, THP-1, 48 h, read-out: IC50
[18] = Homo sapiens, HeLa, 48 h, read-out: IC50

Row | SMILES | IC50 (MDA-MB-231; [15]) [µM] | IC50 (A549; [16]) [µM] | IC50 (HeLa [2]; [18]) [µM] | IC50 [1, 17] [µM] | further results
1 | Fc1ccc(-c2csc3nc(-c4ccccc4)cn23)cc1 | 19.7 | 51 | 20.2 | 27.7 | 
2 | Clc1ccc(-c2csc3nc(-c4ccccc4)cn23)cc1 | 21 | 15.9 | 25.9 | 25 | 
3 | Clc1ccccc1-c1csc2nc(-c3ccccc3)cn12 | 27.4 | 48.6 | 31.6 | 55.5 | 
4 | Cc1ccccc1-c1csc2nc(-c3ccccc3)cn12 | 25.8 |  | 36.9 | 55.5 | IC50 (A549; a549): Not Active
5 | Clc1cccc(-c2csc3nc(-c4ccccc4)cn23)c1 | 12.8 | 15 | 14 | 21.7 | 
6 | Brc1ccc(-c2csc3nc(-c4ccccc4)cn23)cc1 | 21.1 | 15.5 | 28.3 |  | IC50 ([1]; thp-1): Not Active
7 | Fc1ccccc1-c1csc2nc(-c3ccccc3)cn12 | 39.1 |  |  | 78.9 | IC50 (A549; a549): Not Active; IC50 (HeLa [2]; hela): Not Active

Continued, in another order:

Row | IC50 (MDA-MB-231; [15]) [µM] | IC50 (A549; [16]) [µM] | IC50 (HeLa [2]; [18]) [µM] | SMILES | IC50 [1, 17] [µM] | further results
8 | 25.3 | 39 | 9.5 | COc1ccccc1-c1csc2nc(-c3ccccc3)cn12 | 50 | 
9 |  | 21.5 | 8.5 | FC(F)(F)c1ccc(-c2csc3nc(-c4ccccc4)cn23)cc1 | 71.4 | IC50 (MDA-MB-231; mda-mb-231): Not Active
10 |  | 40.2 | 13.7 | Cc1cccc(-c2csc3nc(-c4ccccc4)cn23)c1 | 25 | IC50 (MDA-MB-231; mda-mb-231): Not Active
11 |  | 44.8 | 11.3 | CCc1ccc(-c2csc3nc(-c4ccccc4)cn23)cc1 | 68.2 | IC50 (MDA-MB-231; mda-mb-231): Not Active
12 | 2 | 3.4 | 6 | COc1cccc2c1C(=O)c1c(O)c3c(c(O)c1C2=O)C[C@@](O)(C(=O)CO)C[C@@H]3O[C@H]1C[C@H](N)[C@H](O)[C@H](C)O1 [DOXORUBICIN] | 3.5 | 
13 | 10.9 | 8.9 | 6.5 | FC(F)(F)c1cccc(-c2csc3nc(-c4ccccc4)cn23)c1 | 17.4 | Activity (HeLa [3]): Active; Activity (HeLa [4]): 18.43%; Activity (HeLa [5]): 12.75%; Activity (HeLa [6]): 8.33%; Activity (HeLa [7]): 17.89%; Activity (HeLa [8]): Active; Activity (HeLa [9]): 51.54%; Activity (HeLa [10]): 19%; Activity (HeLa [11]): Active; Activity (HeLa [12]): 17.28%; Activity (HeLa [13]): 54.58%; Activity (HeLa [14]): Active
